# From patent US20060094722A1 (Eisai Co., Ltd., priority 2002, published 2006)
# Where “and” joins values, the source holds several entries; their conditions need not be identical. Identical values can stand only once. Like-named read-outs stand apart in the source and are kept apart here.
# Key:
# [1] = tested on: BALB/c AnCrj mice; conditions: 300 mg/kg p.o. twice a day, 5-FU treatment 60 mg/kg for 3 days, mice
# Method: Animals: BALB/c AnCrj Mice (Purchased from Charles River Japan, Inc.)
# 5-FU (purchased from Sigma) was suspended in a solution of 0.5% methyl cellulose, and then administered orally at a volume of 10 mL/kg/day (8 a.m. to 9 a.m.) for 3 days (60 mg/kg). […] The vehicle control group was orally administered a solution of 0.5% methyl cellulose at a volume of 10 mL/kg.
# Mice were fasted for 18 hours following the afternoon administration on the third day of the administration series. On the following day, the mice were killed by cervical dislocation, and then the whole small intestine was excised and the wet weight was measured.
# [2] = tested on: Zucker fa/fa rats; conditions: for Blood glucose level at each time point (hr) after oral glucose administration / GLP-1 concentration at each time point (hr) after oral glucose administration (% of Pre) / Insulin concentration at each time point (hr) after oral glucose administration: 300 mg/kg p.o. 0.5 hour before glucose load
# Method: (§1) Animals: Zucker fa/fa Rats, an Animal Model for TypeII Diabetes (Purchased from Charles River Japan, Inc.)
# (§2) Each test compound was dissolved in distilled water at the doses shown in the Tables indicated below, and then administered orally at a volume of 5 mL/kg. The vehicle control group was orally administered distilled water at a volume of 5 mL/kg. […] The rats were tested for glucose tolerance on the first day of the administration series. In the test, distilled water and the test compounds were given 0.5 hour before glucose load.
# For the glucose tolerance test, an unanesthetized rat was lightly cut at the caudal vein with a razor blade and bled immediately before the administration of a test compound or distilled water, and immediately before, and at 0.5, 1, 2, and 3 hours after glucose load. 250 μL of blood was collected from the rat using a heparinized capillary and transferred into a centrifugation tube. The supernatant obtained by centrifugation (at 10000 g at 4° C. for 2 minutes) was assayed for active GLP-1 level using Active GLP-1 ELISA kit (Linco). At the same time, 10 μL of blood was collected and mixed with 140 μL of a 0.6 M perchloric acid solution. The mixture was centrifuged (at 3000 g at 4° C. for 10 minutes), and the resulting supernatant was assayed for glucose using Glucose Test Wako II (Wako Pure Chemical Industries, Inc.). The level of blood glucose alone was determined at the time of measurement 3 hours after glucose load.
# [3] = tested on: Zucker fa/fa rats; conditions: 300 mg/kg p.o. twice daily for 14 days
# Method: as §1, §2
# Food intake and body weight were determined at 4:00 p.m after the 14-day administration series. Total food intake and weight gain over 14 days were determined for each experimental group.
# [4] = tested on: DPPIV-deficient male Fisher rats
# Method: Animals: DPPIV-deficient male Fisher rats (purchased from Charles River Japan, Inc.)
# Each test compound was suspended in a solution of 0.5% methyl cellulose at the doses indicated in Table 2, and then administered orally at a volume of 5 mL/kg. The vehicle control group was orally administered a solution of 0.5% methyl cellulose at a volume of 5 mL/kg.
# An unanesthetized rat was lightly cut at the caudal vein with a razor blade and bled immediately before, and at 1, 3, and 5 hours after the administration of a test compound or a solution of 0.5% methyl cellulose. 250 μL of blood was collected from the rat using a heparinized capillary and transferred into a centrifugation tube. The supernatant obtained by centrifugation (at 10000 g at 4° C. for 2 minutes) was assayed for GLP-1 level using Active GLP-1 ELISA kit (Linco).
# [5] = tested on: DPPIV-intact normal male Fisher rats; conditions: for GLP-1 concentration at each time point (hr) after oral administration (% of Pre): 300 mg/kg p.o.
# Method: Each test compound was suspended in a solution of 0.5% methyl cellulose at the doses indicated in Table 3, and then administered orally at a volume of 5 mL/kg. The vehicle control group was orally administered a solution of 0.5% methyl cellulose at a volume of 5 mL/kg.
# An unanesthetized rat was lightly cut at the caudal vein with a razor blade and bled immediately before, and at 1, 3, and 5 hours after administration of a test compound or a solution of 0.5% methyl cellulose. 250 μL of blood was collected from the rat using a heparinized capillary and transferred into a centrifugation tube. The supernatant obtained by centrifugation (at 10000 g at 4° C. for 2 minutes) was assayed for GLP-1 level using Active GLP-1 ELISA kit (Linco).
# [6] = tested on: DPPIV-intact normal male Fisher rats; experiment: Influences of metformin and DPPIV inhibitors (Examples 82, 119, 120, 122, 229, 267), singly or in combination, on GLP-1 level in normal rats; type: in vivo, rat
# Method: Animals: DPPIV-Intact Normal Male Fisher Rats (Purchased from CLEA Japan, Inc.)
# 250 μL of blood was collected from the rat using a heparinized capillary and transferred into a centrifugation tube.
# [7] = tested on: DPPIV-deficient male Fisher rats; experiment: Influence of metformin on the level of GLP-2 in DPPIV-deficient rats; type: in vivo, rat; conditions: 300 mg/kg p.o.; for GLP-2 concentration at each time point (hr) after oral administration (ng/ml): listed as metformin
# Method: Animals: DPPIV-Deficient Male Fisher Rats (Purchased from Charles River Japan, Inc.)
# The test compound was suspended in a solution of 0.5% methyl cellulose at the dose indicated in Table 11, and then administered orally at a volume of 5 mL/kg. The vehicle control group was orally administered an aqueous solution of 0.5% methyl cellulose at a volume of 5 mL/kg.
# An unanesthetized rat was lightly cut at the caudal vein with a razor blade and bled immediately before, and at 1, 3, and 5 hours after administration of a test compound or a solution of 0.5% methyl cellulose. 250 μL of blood was collected from the rat using a heparinized capillary and transferred into a centrifugation tube. The supernatant obtained by centrifugation (at 10000 g at 4° C. for 2 minutes) was assayed for GLP-2 level using GLP-2 ELISA kit (Yanaihara Institute Inc.).
smiles,measurement,setting,value
"CN(C)C(=N)N=C(N)N [Metformin, metformin]",Wet weight of small intestine,[1],0.642 ± 0.017 g
same,Wet weight of small intestine (g),[1]; listed as metformin,no alteration
same,level of active GLP-1 during the glucose tolerance test,[2],no significant increase
same,level of insulin during the glucose tolerance test,[2],no significant increase
same,Blood glucose level at each time point (hr) after oral glucose administration,[2]; 0 hr,117.4 ± 5.5 mg/dL
same,GLP-1 concentration at each time point (hr) after oral glucose administration (% of Pre),[2]; 0 hr,105.6 ± 1.7 % of Pre
same,Insulin concentration at each time point (hr) after oral glucose administration,[2]; 0 hr,14.0 ± 1.1 ng/mL
same,Blood glucose level at each time point (hr) after oral glucose administration,[2]; 0.5 hr,160.6 ± 9.7 mg/dL
same,GLP-1 concentration at each time point (hr) after oral glucose administration (% of Pre),[2]; 0.5 hr,135.4 ± 7.6 % of Pre
same,Insulin concentration at each time point (hr) after oral glucose administration,[2]; 0.5 hr,22.9 ± 2.5 ng/mL
same,Blood glucose level at each time point (hr) after oral glucose administration,[2]; 1 hr,177.5 ± 10.6 mg/dL
same,GLP-1 concentration at each time point (hr) after oral glucose administration (% of Pre),[2]; 1 hr,126.0 ± 8.9 % of Pre
same,Insulin concentration at each time point (hr) after oral glucose administration,[2]; 1 hr,21.2 ± 2.3 ng/mL
same,Blood glucose level at each time point (hr) after oral glucose administration,[2]; 2 hr,159.8 ± 8.6 mg/dL
same,GLP-1 concentration at each time point (hr) after oral glucose administration (% of Pre),[2]; 2 hr,118.4 ± 6.5 % of Pre
same,Insulin concentration at each time point (hr) after oral glucose administration,[2]; 2 hr,16.9 ± 1.6 ng/mL
same,Blood glucose level at each time point (hr) after oral glucose administration,[2]; 3 hr,122.4 ± 3.7 mg/dL
same,Blood glucose level at each time point (hr) after oral glucose administration,[2]; −0.5 hr,108.9 ± 5.6 mg/dL
same,GLP-1 concentration at each time point (hr) after oral glucose administration (% of Pre),[2]; −0.5 hr,100.0 ± 0.0 % of Pre
same,Insulin concentration at each time point (hr) after oral glucose administration,[2]; −0.5 hr,11.9 ± 1.1 ng/mL
same,glucose tolerance,[2]; glucose tolerance test,improved
same,Total food intake for 14 days,[3],495.1 ± 8.9 g
same,Weight gain for 14 days,[3],64.5 ± 3.5 g
same,GLP-1 concentration at each time point (hr) after oral administration (% of Pre),"[4]; 30 mg/kg p.o., 0 hr",100 ± 0.0 % of Pre
same,GLP-1 concentration at each time point (hr) after oral administration (% of Pre),"[4]; 30 mg/kg p.o., 1 hr",99.9 ± 3.7 % of Pre
same,GLP-1 concentration at each time point (hr) after oral administration (% of Pre),"[4]; 30 mg/kg p.o., 3 hr",106.6 ± 5.0 % of Pre
same,GLP-1 concentration at each time point (hr) after oral administration (% of Pre),"[4]; 30 mg/kg p.o., 5 hr",116.3 ± 2.7 % of Pre
same,GLP-1 concentration at each time point (hr) after oral administration (% of Pre),"[4]; 100 mg/kg p.o., 0 hr",100 ± 0.0 % of Pre
same,GLP-1 concentration at each time point (hr) after oral administration (% of Pre),"[4]; 100 mg/kg p.o., 1 hr",111.6 ± 7.9 % of Pre
same,GLP-1 concentration at each time point (hr) after oral administration (% of Pre),"[4]; 100 mg/kg p.o., 3 hr",116.3 ± 8.2 % of Pre
same,GLP-1 concentration at each time point (hr) after oral administration (% of Pre),"[4]; 100 mg/kg p.o., 5 hr",150.6 ± 7.2 % of Pre
same,GLP-1 concentration at each time point (hr) after oral administration (% of Pre),"[4]; 300 mg/kg p.o., 0 hr",100 ± 0.0 % of Pre
same,GLP-1 concentration at each time point (hr) after oral administration (% of Pre),"[4]; 300 mg/kg p.o., 1 hr",140.0 ± 11.5 % of Pre
same,GLP-1 concentration at each time point (hr) after oral administration (% of Pre),"[4]; 300 mg/kg p.o., 3 hr",199.3 ± 32.4 % of Pre
same,GLP-1 concentration at each time point (hr) after oral administration (% of Pre),"[4]; 300 mg/kg p.o., 5 hr",227.1 ± 35.5 % of Pre
same,GLP-1 concentration at each time point (hr) after oral administration (% of Pre),"[4]; 300 mg/kg p.o., 5 hr, listed as metformin",significantly elevated
same,GLP-1 concentration at each time point (hr) after oral administration (% of Pre),[5]; 0 hr,100 ± 0.0 % of Pre
same,GLP-1 concentration at each time point (hr) after oral administration (% of Pre),[5]; 1 hr,117 ± 9 % of Pre
same,GLP-1 concentration at each time point (hr) after oral administration (% of Pre),[5]; 3 hr,149 ± 24 % of Pre
same,GLP-1 concentration at each time point (hr) after oral administration (% of Pre),[5]; 5 hr,94 ± 10 % of Pre
same,level of active GLP-1,[5]; given singly,no increase
same,GLP-1 concentration 3 hours after oral administration (% of Pre),"[6]; 300 mg/kg p.o., 3 hours",118.1 ± 7.5 % of Pre and 108.6 ± 2.2 % of Pre and 112.5 ± 2.4 % of Pre
same,level of active GLP-1,[6]; 3 hours after administration,no increase
same,GLP-2 concentration at each time point (hr) after oral administration,[7]; 0 hr,1.32 ± 0.02 ng/mL
same,GLP-2 concentration at each time point (hr) after oral administration,[7]; 1 hr,1.65 ± 0.06 ng/mL
same,GLP-2 concentration at each time point (hr) after oral administration (ng/ml),[7]; 1 hr,significantly elevated
same,GLP-2 concentration at each time point (hr) after oral administration,[7]; 3 hr,2.08 ± 0.07 ng/mL
same,GLP-2 concentration at each time point (hr) after oral administration (ng/ml),[7]; 3 hr,significantly elevated
same,GLP-2 concentration at each time point (hr) after oral administration,[7]; 5 hr,2.15 ± 0.05 ng/mL
same,GLP-2 concentration at each time point (hr) after oral administration (ng/ml),[7]; 5 hr,significantly elevated
